The source of these data is article PMC9272005, “Genome-Wide Expression Analysis of Glyoxalase I Genes Under Hyperosmotic Stress and Existence of a Stress-Responsive Mitochondrial Glyoxalase I Activity in Durum Wheat (Triticum durum Desf.)” (Frontiers in Plant Science, 2022).

This assay addresses T1, DWM-GLYI (mitochondrial glyoxalase I).
T1 construct: native activity in Triton X-100-lysed purified mitochondria; isoform not identified
Nature of the assay: spectrophotometric GLYI activity assay ([…] nm) in lysed mitochondria, inhibition kinetics. It is filed as biochemical, Triticum turgidum subsp. durum.

For `COc1cc(/C=C/C(=O)CC(=O)/C=C/c2ccc(O)c(OC)c2)ccc1O` [curcumin], affinity was put at a Ki of 20 ± 3.5 µM.

With `O=c1c(O)c(-c2ccc(O)c(O)c2)oc2cc(O)cc(O)c12` [quercetin], the affinity corresponds to a Ki of 55 ± 7.5 µM.
